From publication PMC7480105, “Wbox2: A clathrin terminal domain–derived peptide inhibitor of clathrin-mediated endocytosis” (The Journal of Cell Biology, 2020)
No end group written: not given here.

Tests used:
[1] = test system: TfnR uptake via CME in ARPE/HPV cells; test: TfnR uptake (in-cell ELISA) after peptide preincubation; type: cell-based; settings: 60-min preincubation with peptide at 37°C, concentration curves, n = 4 replicates (Fig. 7 F), read-out: IC50 for inhibition of TfnR uptake
Protocol: Peptides encoding the TAT sequence (YGRKKRRQRRR) followed by 10 amino acid sequences covering the four reported binding sites on the clathrin terminal domain (Fig. 7 A) were synthesized by GenScript (Piscataway, NJ) with >95% purity. Peptides were dissolved in dH2O and further diluted in PBS4+ (1× PBS buffer plus 0.2% BSA, 1 mM CaCl2, 1 mM MgCl2, and 5 mM D-glucose) or cell culture medium (for imaging) when applied to cells. Peptide solutions were stored at −20°C.
Internalization of TfnR, CD44, CD59, and Biotin-Tfn was quantified by in-cell ELISA following established protocols ([Conner and Schmid, 2003]; [Srinivasan et al., 2018]). Cells were seeded in 96-well plates (Costar) at 60–70% confluence and grown overnight. Before the assay, cells were starved for 30 min in PBS4+ at 37°C or treated with peptides in PBS4+ at 37°C for the indicated times. After starvation, cells were moved to 4°C, and culture medium was replaced with cold PBS4+ containing 5 µg/ml HTR-D65 (anti-TfnR mAb; [Schmid and Smythe, 1991]), anti-human CD44 or anti-human CD59 (BD PharMingen) or 5 µg/ml Biotin-Tfn (Sigma-Aldrich). For single-round assays, the above reagents were kept with cells for 20 min at 4°C and then washed out before uptake assay. For multiround assays, the above reagents were kept with cells throughout the uptake process. In parallel, some cells were kept at 4°C for the measurement of surface-bound ligands and blank controls, and some were incubated in a 37°C water bath for the indicated times. Acid wash (0.2 M acetic acid and 0.2 M NaCl, pH 2.3) was used to remove surface-bound antibodies, followed by washing with cold PBS. All were fixed with 4% PFA (Electron Microscopy Sciences) in PBS for 30 min at 37°C. 0.1% Triton X-100 was added for 6.5 min to permeabilize cells, followed by addition of blocking buffer. HTR-D65–, CD44-, and CD59-treated cells were blocked with Q-PBS (PBS, 2% BSA, 0.1% lysine, and 0.01% saponin, pH 7.4), and Biotin-Tfn–treated cells were blocked with 2% casein. Surface-bound and internalized HTR-D65, CD44, and CD59 were probed with goat anti-mouse antibody conjugated with HRP (Sigma-Aldrich), and Biotin-Tfn was probed with Streptavidin-POD conjugate (Sigma-Aldrich). Color was developed using o-phenylenediamine dihydrochloride (OPD) solution (Sigma-Aldrich), and absorbance was read at 490 nm (Biotek Synergy H1 Hybrid Reader). Cell number variation among wells was accounted for by bicinchoninic acid assay reading at 562 nm.

cell viability = test: Cell viability, Cell Counting Kit 8 (CCK-8); type: cell-based; settings: for cytotoxicity IC50 relative to concentration needed to inhibit CME: cytotoxicity vs CME inhibition
SNX9 = SNX9 (Homo sapiens, UniProt Q9Y5X1); test: Isothermal titration calorimetry with SNX9; type: binding; settings: ITC, 20°C, 20 mM Hepes, 150 mM NaCl, 1 mM TCEP, pH 7.4; 1.8 mM Wbox2 injected into 50 µM SNX9; two nonsymmetric sites model; read-out: binding affinity KD1, first Wbox2 binding site on SNX9
Source text: GUSSI was further used to output the figures presented.

[2] = target: hinge + appendage domain of the AP2 β2 subunit (β2-HAD) (UniProt P63010); settings: read-out: binding affinity KD to β2-HAD; ITC, 20°C, pH 7.4; 1.2 mM Wbox2 injected into 200 µM β2-HAD; A+B <–> AB model; binds a fraction of purified β2-HAD
hinge + appendage domain of the AP2 β2 subunit (β2-HAD), sequence (P63010 2-937): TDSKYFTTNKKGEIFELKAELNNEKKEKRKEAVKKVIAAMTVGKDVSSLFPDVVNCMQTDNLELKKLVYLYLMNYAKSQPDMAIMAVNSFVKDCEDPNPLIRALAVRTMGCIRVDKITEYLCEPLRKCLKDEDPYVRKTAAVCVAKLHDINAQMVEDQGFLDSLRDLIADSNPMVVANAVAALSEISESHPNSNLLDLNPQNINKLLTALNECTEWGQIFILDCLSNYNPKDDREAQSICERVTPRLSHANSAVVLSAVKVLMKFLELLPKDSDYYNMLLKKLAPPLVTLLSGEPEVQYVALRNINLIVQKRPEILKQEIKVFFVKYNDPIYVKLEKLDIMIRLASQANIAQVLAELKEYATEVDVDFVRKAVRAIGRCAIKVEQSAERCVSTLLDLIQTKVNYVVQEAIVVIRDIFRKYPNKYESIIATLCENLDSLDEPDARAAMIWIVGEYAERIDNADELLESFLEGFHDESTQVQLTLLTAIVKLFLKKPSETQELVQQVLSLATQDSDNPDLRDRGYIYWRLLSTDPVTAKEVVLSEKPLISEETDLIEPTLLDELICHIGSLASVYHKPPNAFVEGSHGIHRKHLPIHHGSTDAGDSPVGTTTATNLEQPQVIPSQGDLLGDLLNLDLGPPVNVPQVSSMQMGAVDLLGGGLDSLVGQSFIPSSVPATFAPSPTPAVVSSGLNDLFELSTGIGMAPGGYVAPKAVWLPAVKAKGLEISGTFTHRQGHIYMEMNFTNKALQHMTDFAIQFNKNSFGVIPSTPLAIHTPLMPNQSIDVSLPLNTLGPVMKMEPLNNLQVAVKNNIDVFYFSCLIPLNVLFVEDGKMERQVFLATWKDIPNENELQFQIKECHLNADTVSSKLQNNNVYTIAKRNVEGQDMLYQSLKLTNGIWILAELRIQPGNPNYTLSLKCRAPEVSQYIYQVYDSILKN
Protocol: Binding of TAT, Wbox2_mutant, and Wbox2 to SNX9 and β2-HAD was investigated by ITC using a MicroCal iTC200 (GE Healthcare Life Sciences). Measurements were performed at 20°C in reaction buffer: 20 mM Hepes, 150 mM NaCl, and 1 mM TCEP, pH 7.4. Protein and peptide concentrations were determined by absorbance at 280 and 205 nm, respectively. The peptides were injected from a syringe in 21 steps up to a molar excess over the protein concentration. Titration curves were executed with NITPIC and fitted with SEDPHAT.

SNX9, sequence (Q9Y5X1 whole entry, species assumed): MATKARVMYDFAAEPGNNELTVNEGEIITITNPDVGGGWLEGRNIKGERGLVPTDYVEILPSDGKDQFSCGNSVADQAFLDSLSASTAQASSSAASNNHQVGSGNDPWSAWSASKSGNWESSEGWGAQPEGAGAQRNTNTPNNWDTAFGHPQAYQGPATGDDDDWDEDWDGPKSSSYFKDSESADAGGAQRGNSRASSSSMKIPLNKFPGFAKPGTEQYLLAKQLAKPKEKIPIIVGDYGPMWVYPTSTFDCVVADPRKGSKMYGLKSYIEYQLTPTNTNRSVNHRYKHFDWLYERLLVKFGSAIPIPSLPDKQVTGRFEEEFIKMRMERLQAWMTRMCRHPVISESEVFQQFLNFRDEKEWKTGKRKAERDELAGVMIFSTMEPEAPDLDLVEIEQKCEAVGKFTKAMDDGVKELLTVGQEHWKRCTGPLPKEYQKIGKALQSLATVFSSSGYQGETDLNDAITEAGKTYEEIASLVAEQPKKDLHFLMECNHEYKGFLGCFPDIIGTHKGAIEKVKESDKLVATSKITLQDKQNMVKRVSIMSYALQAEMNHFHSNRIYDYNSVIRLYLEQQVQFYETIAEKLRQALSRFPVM

YGRKKRRQRRRGFSCQIIGIS [Wbox2]
IC50 [1]: ~3 µM | IC50 for cytotoxicity (cell viability; CCK-8, n = 4 replicates (Fig. S5)): > 40 µM | effect on cell viability (cell viability; concentrations ≤30 µM, CCK-8, n = 4 replicates (Fig. S5)): no effect | cytotoxicity IC50 relative to concentration needed to inhibit CME (cell viability): 10 fold | cytotoxicity IC50 relative to concentration needed to inhibit CME (cell viability; listed as CMEpi): ~ 10 fold | Kd (SNX9): 4 µM | Kd [2]: 37.5 µM

YGRKKRRQRRRKTLQIFKSKI [Cbox2]
IC50 [1]: > 100 µM

YGRKKRRQRRRKAGKTLQIFN [Cbox1]
IC50 [1]: ~60 µM
